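Five compound concentrations were applied to cells in 96-well plates for 48 hours; endpoints were derived by simple linear interpolation of the resulting dose-response curve. GI50 marks 50% less growth.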 Activity calls are given as the source filed them. Cut-off read from the data, not from the text of the source: active = GI50 up to about 1.1 µM and inactive = higher.
Columns and labels:
Experiment in all cases: inhibition of tumour cell growth, NCI panel, 48 h
A498 = system: A498
ACHN = system: ACHN
BT-549 = system: BT-549
CCRF-CEM = system: CCRF-CEM
HCT-116 = system: HCT-116
HCT-15 = system: HCT-15
MOLT-4 = system: MOLT-4
Malme-3M = system: Malme-3M
NCI-H226 = system: NCI-H226
NCI-H23 = system: NCI-H23
NCI-H460 = system: NCI-H460
OVCAR-4 = system: OVCAR-4
SF-268 = system: SF-268
SK-MEL-28 = system: SK-MEL-28
SK-MEL-2 = system: SK-MEL-2
SK-MEL-5 = system: SK-MEL-5
SK-OV-3 = system: SK-OV-3
SNB-19 = system: SNB-19
T47D = system: T47D
UO-31 = system: UO-31

Measured: GI50

CC(=O)OCC1=C(C)C[C@H]([C@@H](COC(C)=O)C2CCC3C4C[C@H]5O[C@]56CC=CC(=O)[C@]6(C)C4CC[C@@]32C)OC1=O (stereo not given in full)
active: A498 0.624 µM | ACHN 0.302 µM | BT-549 0.26 µM | CCRF-CEM 0.0191 µM | HCT-116 0.097 µM | MOLT-4 0.0204 µM | Malme-3M 0.274 µM | NCI-H226 0.598 µM | NCI-H23 0.37 µM | NCI-H460 0.929 µM | OVCAR-4 0.359 µM | SF-268 0.379 µM | SK-MEL-28 0.3 µM | SK-MEL-2 0.716 µM | SK-MEL-5 0.269 µM | SNB-19 0.681 µM | T47D 0.353 µM | UO-31 0.993 µM
0.083 µM: HCT-15
inactive: SK-OV-3 1.79 µM

COc1ccc(C(NCCNC(c2ccc(OC)c(OC)c2)c2cc3c(cc2O)OCO3)c2cc3c(cc2O)OCO3)cc1OC (stereo not given)
active: CCRF-CEM 0.141 µM | MOLT-4 0.918 µM
1.85 µM: HCT-15
inactive: A498 7.45 µM | ACHN 2.64 µM | BT-549 2.12 µM | HCT-116 2.26 µM | Malme-3M 4.5 µM | NCI-H226 8.02 µM | NCI-H23 2.51 µM | NCI-H460 4.35 µM | OVCAR-4 4.83 µM | SF-268 1.63 µM | SK-MEL-28 1.62 µM | SK-MEL-2 6.81 µM | SK-MEL-5 7.05 µM | SK-OV-3 6.87 µM | SNB-19 4.06 µM | T47D 3.37 µM | UO-31 2.8 µM

CCCCc1ccc(Nc2nc(SC)c3[nH]cnc3n2)cc1
inactive: A498 18.7 µM | ACHN 12.7 µM | BT-549 > 100 µM | CCRF-CEM 6.19 µM | HCT-116 23.6 µM | MOLT-4 2.81 µM | Malme-3M > 100 µM | NCI-H226 > 73.6 µM | NCI-H23 28.6 µM | NCI-H460 13.9 µM | OVCAR-4 > 100 µM | SF-268 65.5 µM | SK-MEL-28 > 100 µM | SK-MEL-2 > 38.5 µM | SK-MEL-5 17.7 µM | SK-OV-3 > 43.5 µM | SNB-19 36.6 µM | T47D > 100 µM | UO-31 > 78.2 µM
> 32.9 µM: HCT-15

COc1ccccc1NC(=S)N/N=C(/c1ccccc1)c1ccccn1
active: ACHN 0.0257 µM | CCRF-CEM 0.0316 µM | HCT-116 < 0.0147 µM | MOLT-4 < 0.0182 µM | Malme-3M 0.167 µM | NCI-H226 0.146 µM | NCI-H23 < 0.013 µM | NCI-H460 0.158 µM | OVCAR-4 0.71 µM | SF-268 0.144 µM | SK-MEL-5 0.0904 µM | SK-OV-3 0.0771 µM | T47D < 0.0426 µM | UO-31 0.2 µM
0.045 µM: HCT-15
inactive: A498 1.38 µM | BT-549 2.15 µM | SK-MEL-28 1.39 µM | SK-MEL-2 4.4 µM | SNB-19 2.6 µM

COc1ccc(C2C3=C(COC3=O)OC(C)(C)Oc3cc4c(cc32)OCO4)cc1OC (stereo not given)
38.5 µM: HCT-15
inactive: A498 23.1 µM | ACHN 51.5 µM | BT-549 32.3 µM | CCRF-CEM 37.1 µM | HCT-116 34.6 µM | MOLT-4 34.8 µM | Malme-3M 29.7 µM | NCI-H226 > 78.7 µM | NCI-H23 36.8 µM | NCI-H460 37.1 µM | OVCAR-4 > 53.8 µM | SF-268 21.1 µM | SK-MEL-28 53.2 µM | SK-MEL-2 34.4 µM | SK-MEL-5 30.3 µM | SK-OV-3 50.5 µM | SNB-19 44.4 µM | T47D 37.5 µM | UO-31 47.9 µM

Cc1cc(N(CCC#N)CCC#N)ccc1C(=N/NC(=O)c1cc(Cl)ccc1O)/N=N/c1cccc([N+](=O)[O-])c1
inactive: A498 15.5 µM | ACHN 35.5 µM | BT-549 22.4 µM | CCRF-CEM 5.68 µM | HCT-116 22.2 µM | MOLT-4 6.03 µM | Malme-3M 34 µM | NCI-H226 25.1 µM | NCI-H23 22.6 µM | NCI-H460 25 µM | OVCAR-4 20.4 µM | SF-268 18.7 µM | SK-MEL-28 28.9 µM | SK-MEL-2 21.7 µM | SK-MEL-5 18.1 µM | SK-OV-3 34 µM | SNB-19 26.5 µM | T47D 19.4 µM | UO-31 17.6 µM
25.5 µM: HCT-15

c1ccc([I+]c2ccccc2)cc1
> 100 µM: HCT-15
inactive: A498 > 100 µM | ACHN > 100 µM | BT-549 > 100 µM | CCRF-CEM > 100 µM | HCT-116 > 100 µM | MOLT-4 > 100 µM | Malme-3M > 100 µM | NCI-H226 > 100 µM | NCI-H23 > 100 µM | NCI-H460 > 100 µM | OVCAR-4 > 100 µM | SF-268 > 100 µM | SK-MEL-28 > 100 µM | SK-MEL-2 > 100 µM | SK-MEL-5 > 100 µM | SK-OV-3 > 100 µM | SNB-19 > 100 µM | T47D > 100 µM | UO-31 > 100 µM

COC(=O)C(Cc1ccccc1)C(=O)NC(CNC(=O)OCc1ccccc1)C(=O)OCc1ccccc1 (stereo not given)
45.7 µM: HCT-15
inactive: A498 > 47.8 µM | ACHN 34.6 µM | BT-549 53.3 µM | CCRF-CEM 14.7 µM | HCT-116 31.9 µM | MOLT-4 11.8 µM | Malme-3M 19.8 µM | NCI-H226 32.1 µM | NCI-H23 43.6 µM | NCI-H460 42.1 µM | OVCAR-4 38.3 µM | SF-268 44.8 µM | SK-MEL-28 19.3 µM | SK-MEL-2 24.1 µM | SK-MEL-5 18.8 µM | SK-OV-3 > 100 µM | SNB-19 86.3 µM | T47D 36.1 µM | UO-31 28.6 µM

COc1ccc(/C=C\c2cc(OC)c(OC)c(OC)c2)cc1OC(=O)CCC(=O)O
active: A498 0.067 µM | ACHN < 0.0001 µM | CCRF-CEM < 0.0001 µM | HCT-116 < 0.0001 µM | MOLT-4 < 0.0001 µM | Malme-3M < 0.0001 µM | NCI-H226 < 0.0001 µM | NCI-H23 0.0119 µM | NCI-H460 < 0.0001 µM | SF-268 < 0.0001 µM | SK-MEL-28 < 0.01 µM | SK-MEL-2 0.0126 µM | SK-MEL-5 0.1 µM | SK-OV-3 0.000895 µM | SNB-19 < 0.0001 µM
< 0.0001 µM: HCT-15
inactive: BT-549 25.8 µM | OVCAR-4 36 µM | T47D 29.9 µM | UO-31 1.34 µM

CCC(=O)c1cc(C(=O)C(=S)SC)cc(C(=O)C(=S)SC)c1
inactive: A498 > 100 µM | ACHN > 87.1 µM | BT-549 > 100 µM | CCRF-CEM 3.05 µM | HCT-116 > 100 µM | MOLT-4 12 µM | Malme-3M > 27.3 µM | NCI-H226 > 100 µM | NCI-H23 > 76.7 µM | NCI-H460 > 100 µM | OVCAR-4 > 100 µM | SF-268 > 100 µM | SK-MEL-28 > 100 µM | SK-MEL-2 > 100 µM | SK-MEL-5 > 82.8 µM | SK-OV-3 > 100 µM | SNB-19 > 100 µM | T47D > 100 µM | UO-31 48.4 µM
> 60 µM: HCT-15

Cc1cc(C)nc(NS(=O)(=O)c2ccc(NC(=O)c3ccc4nc5ccccc5c(Nc5ccc(S(=O)(=O)Nc6nc(C)cc(C)n6)cc5)c4c3)cc2)n1
inactive: A498 > 100 µM | ACHN > 100 µM | BT-549 19 µM | CCRF-CEM 36.6 µM | HCT-116 57 µM | MOLT-4 28.5 µM | Malme-3M 67.5 µM | NCI-H226 > 100 µM | NCI-H23 34 µM | NCI-H460 88.5 µM | OVCAR-4 68.7 µM | SF-268 58.6 µM | SK-MEL-28 > 100 µM | SK-MEL-2 36.2 µM | SK-MEL-5 > 100 µM | SK-OV-3 59.2 µM | SNB-19 > 100 µM | T47D 46.7 µM | UO-31 > 100 µM
> 100 µM: HCT-15

C[N+](C)(N)CCC[N+](C)(C)N
inactive: A498 > 100 µM | ACHN > 100 µM | BT-549 > 100 µM | CCRF-CEM > 100 µM | HCT-116 > 100 µM | MOLT-4 > 100 µM | Malme-3M > 100 µM | NCI-H226 > 100 µM | NCI-H23 > 100 µM | NCI-H460 > 100 µM | OVCAR-4 > 100 µM | SF-268 > 100 µM | SK-MEL-28 > 100 µM | SK-MEL-2 > 100 µM | SK-MEL-5 > 100 µM | SK-OV-3 > 100 µM | SNB-19 > 100 µM | T47D > 100 µM | UO-31 > 100 µM
> 100 µM: HCT-15

— ChEMBL document CHEMBL1201862, “PubChem BioAssay data set” (2004)
